Reference: PMC6301090 (Nature medicine, 2018)

Target: ΔF508-NBD1 (CFTR nucleotide binding domain 1) (Homo sapiens, UniProt P13569, F494N/DEL508-508)
Test: SPR

Kd: > 1 mM
SMILES: O=C(O)Cc1c(Br)[nH]c2ccccc12 [BIA, bromoindole-3-acetic acid]
